Test results published in patent publication US20120082658A1, “Methods for the Treatment of Allergic Diseases” (VentiRx Pharmaceuticals, Inc., priority 2010, published 2012).
pEC50: −log10 of the molar value.

How the values were obtained:
Assay type in all cases: cell-based
TLR6 = biological target: T1, TLR6 (Homo sapiens, UniProt Q9Y2C9); test: HEK293 cells transfected with human TLR6, NF-κB driven reporter; details: concentration up to 25 uM
T1 construct: expressed in transfected cells; host or cells: HEK293
T1 sequence (Q9Y2C9 32-796): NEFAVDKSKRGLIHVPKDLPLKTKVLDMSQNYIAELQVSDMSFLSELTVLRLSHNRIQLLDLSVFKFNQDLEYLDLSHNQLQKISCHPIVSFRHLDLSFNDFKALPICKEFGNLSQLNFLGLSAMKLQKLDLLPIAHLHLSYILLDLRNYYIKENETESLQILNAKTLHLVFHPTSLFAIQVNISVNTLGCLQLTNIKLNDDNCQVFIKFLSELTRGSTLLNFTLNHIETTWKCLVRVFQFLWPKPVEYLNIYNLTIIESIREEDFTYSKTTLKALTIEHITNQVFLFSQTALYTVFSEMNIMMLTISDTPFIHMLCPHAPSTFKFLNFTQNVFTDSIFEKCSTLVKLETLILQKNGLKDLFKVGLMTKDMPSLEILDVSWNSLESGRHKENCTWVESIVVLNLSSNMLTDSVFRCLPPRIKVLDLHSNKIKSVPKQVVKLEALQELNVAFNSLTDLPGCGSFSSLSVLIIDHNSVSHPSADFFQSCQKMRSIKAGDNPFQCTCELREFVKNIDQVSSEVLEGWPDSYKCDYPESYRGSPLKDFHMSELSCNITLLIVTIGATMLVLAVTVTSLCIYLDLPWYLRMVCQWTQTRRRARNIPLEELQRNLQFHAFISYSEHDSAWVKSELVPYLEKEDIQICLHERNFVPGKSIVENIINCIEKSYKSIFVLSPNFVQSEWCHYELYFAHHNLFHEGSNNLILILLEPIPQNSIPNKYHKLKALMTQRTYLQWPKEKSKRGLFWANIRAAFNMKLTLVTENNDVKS
Description: (§1) FIG. 8 is two graphs depicting the potency and selectivity of VTX-378 for TLR8. The half-maximal effective concentration (EC50) for VTX-378 activation of TLR8 and TLR7 was assessed in peripheral blood mononuclear cells (PBMCs) by the amount of secreted TNFα (A) and by the activity of NF-κB (B) from 15 healthy donors and also in HEK293 cells transfected with various human TLRs.
(§2) Preclinical studies were performed with VTX-378, the active pharmaceutical ingredient in VTX-1463. The specificity of VTX-378 for human TLR8 relative to other TLRs was assessed in transfected Human Embryonic Kidney 293 (HEK293) cells engineered to express individual TLRs (2-9) via transfection, and assessed using an NF-κB driven reporter system. […] The pharmacologic effects of VTX-378 were characterized in vitro using isolated human peripheral blood mononuclear cells (PBMCs).

TLR4 = biological target: T2, TLR4 (Homo sapiens, UniProt O00206+Q9Y6Y9); test: HEK293 cells transfected with human TLR4, NF-κB driven reporter
T2 construct: expressed in transfected cells; host or cells: HEK293
T2 sequence (O00206 24-839): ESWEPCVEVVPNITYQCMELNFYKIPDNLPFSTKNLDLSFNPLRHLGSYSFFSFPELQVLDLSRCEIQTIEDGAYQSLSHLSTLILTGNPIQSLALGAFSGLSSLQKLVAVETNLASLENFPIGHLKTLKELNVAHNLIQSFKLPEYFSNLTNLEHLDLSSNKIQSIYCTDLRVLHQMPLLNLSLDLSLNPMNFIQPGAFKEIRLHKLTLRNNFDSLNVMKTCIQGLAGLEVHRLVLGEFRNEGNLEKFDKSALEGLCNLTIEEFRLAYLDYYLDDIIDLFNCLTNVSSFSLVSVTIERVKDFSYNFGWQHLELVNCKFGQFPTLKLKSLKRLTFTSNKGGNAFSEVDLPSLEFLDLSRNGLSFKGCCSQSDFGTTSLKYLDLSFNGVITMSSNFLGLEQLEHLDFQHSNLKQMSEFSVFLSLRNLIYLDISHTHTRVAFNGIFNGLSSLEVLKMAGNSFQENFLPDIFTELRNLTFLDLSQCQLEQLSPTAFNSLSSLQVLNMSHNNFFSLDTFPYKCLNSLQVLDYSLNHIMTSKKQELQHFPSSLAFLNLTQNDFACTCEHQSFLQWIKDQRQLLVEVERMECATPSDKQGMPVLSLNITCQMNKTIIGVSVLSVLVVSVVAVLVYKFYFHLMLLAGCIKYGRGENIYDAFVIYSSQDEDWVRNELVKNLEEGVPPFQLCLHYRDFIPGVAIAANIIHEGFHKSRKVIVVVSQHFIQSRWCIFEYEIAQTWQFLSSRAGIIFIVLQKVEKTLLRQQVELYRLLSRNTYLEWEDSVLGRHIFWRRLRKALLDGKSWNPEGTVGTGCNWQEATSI
T2 sequence (Q9Y6Y9 17-160 limits assumed): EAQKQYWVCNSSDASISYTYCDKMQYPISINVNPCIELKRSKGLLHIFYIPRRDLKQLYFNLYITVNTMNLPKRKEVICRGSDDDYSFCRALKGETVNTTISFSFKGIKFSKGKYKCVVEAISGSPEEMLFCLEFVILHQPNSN
Description: as §1, §2

human whole blood = test: Co-culture of human whole blood, IL-12 and IL-10 production
Text: FIG. 9 is two graphs depicting that VTX-378 stimulates production of IL-12 and IL-10.

TLR5 = biological target: T3, TLR5 (Homo sapiens, UniProt O60602); test: HEK293 cells transfected with human TLR5, NF-κB driven reporter; details: concentration up to 25 uM
T3 construct: expressed in transfected cells; host or cells: HEK293
T3 sequence (O60602 21-858): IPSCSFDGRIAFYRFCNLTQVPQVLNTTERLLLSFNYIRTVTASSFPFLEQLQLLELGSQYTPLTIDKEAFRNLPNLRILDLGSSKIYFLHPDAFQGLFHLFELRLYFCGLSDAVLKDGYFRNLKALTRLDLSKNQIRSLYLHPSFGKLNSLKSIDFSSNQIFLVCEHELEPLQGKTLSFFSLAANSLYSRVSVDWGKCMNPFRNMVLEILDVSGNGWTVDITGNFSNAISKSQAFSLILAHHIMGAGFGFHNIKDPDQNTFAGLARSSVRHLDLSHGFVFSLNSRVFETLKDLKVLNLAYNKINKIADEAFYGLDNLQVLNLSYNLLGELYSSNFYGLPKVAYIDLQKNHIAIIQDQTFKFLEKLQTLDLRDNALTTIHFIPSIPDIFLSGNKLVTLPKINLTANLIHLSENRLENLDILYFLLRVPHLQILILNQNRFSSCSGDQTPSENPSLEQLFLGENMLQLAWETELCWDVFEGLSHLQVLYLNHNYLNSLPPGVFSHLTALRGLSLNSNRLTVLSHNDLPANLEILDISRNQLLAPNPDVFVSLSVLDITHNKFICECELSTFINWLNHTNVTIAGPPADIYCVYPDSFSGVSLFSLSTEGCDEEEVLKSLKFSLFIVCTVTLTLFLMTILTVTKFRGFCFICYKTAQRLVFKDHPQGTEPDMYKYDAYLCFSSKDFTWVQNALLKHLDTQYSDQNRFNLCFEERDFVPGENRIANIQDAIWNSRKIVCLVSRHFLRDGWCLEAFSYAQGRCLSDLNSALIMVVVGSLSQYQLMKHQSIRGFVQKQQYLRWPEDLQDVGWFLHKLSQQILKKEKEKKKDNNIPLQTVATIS
Description: as §1, §2

TLR7 = biological target: T4, TLR7 (Homo sapiens, UniProt Q9NYK1); test: HEK293 cells transfected with human TLR7, NF-κB driven reporter; details: read-out: EC50, activation of TLR7
T4 construct: expressed in transfected cells; host or cells: HEK293
T4 sequence (Q9NYK1 27-1049): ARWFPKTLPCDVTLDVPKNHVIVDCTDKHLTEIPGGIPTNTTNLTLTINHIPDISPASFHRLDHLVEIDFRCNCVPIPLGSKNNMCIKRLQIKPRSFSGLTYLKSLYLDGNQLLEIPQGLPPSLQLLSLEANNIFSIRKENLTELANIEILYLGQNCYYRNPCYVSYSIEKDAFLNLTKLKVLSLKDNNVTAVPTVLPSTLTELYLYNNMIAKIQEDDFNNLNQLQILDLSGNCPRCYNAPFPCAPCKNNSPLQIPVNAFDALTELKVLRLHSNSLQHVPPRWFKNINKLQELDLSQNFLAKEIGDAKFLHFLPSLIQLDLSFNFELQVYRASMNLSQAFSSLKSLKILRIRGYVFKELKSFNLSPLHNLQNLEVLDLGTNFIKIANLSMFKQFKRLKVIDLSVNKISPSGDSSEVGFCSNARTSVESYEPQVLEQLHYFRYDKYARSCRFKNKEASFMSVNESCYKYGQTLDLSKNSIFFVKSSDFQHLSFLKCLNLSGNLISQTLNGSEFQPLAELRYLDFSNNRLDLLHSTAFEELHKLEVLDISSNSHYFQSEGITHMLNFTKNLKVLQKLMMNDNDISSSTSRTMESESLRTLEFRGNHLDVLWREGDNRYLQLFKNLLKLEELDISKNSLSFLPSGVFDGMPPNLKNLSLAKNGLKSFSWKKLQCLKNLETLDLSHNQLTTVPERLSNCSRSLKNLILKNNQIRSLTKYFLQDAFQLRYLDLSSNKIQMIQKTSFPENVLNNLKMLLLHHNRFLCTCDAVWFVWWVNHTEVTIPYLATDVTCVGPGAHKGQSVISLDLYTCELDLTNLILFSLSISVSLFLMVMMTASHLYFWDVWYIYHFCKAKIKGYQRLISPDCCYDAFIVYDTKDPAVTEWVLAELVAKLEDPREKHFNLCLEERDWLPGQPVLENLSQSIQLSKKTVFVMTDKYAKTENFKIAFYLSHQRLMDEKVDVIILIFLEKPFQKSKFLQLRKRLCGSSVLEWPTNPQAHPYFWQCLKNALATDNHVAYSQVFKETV
Description: as §1, §2

## CCCN(CCC)C(=O)C1=Cc2ccc(-c3ccc(C(=O)N4CCCC4)cc3)cc2N=C(N)C1 [VTX-378]
TLR6
  activity on TLR6: no detectable activity
TLR4
  activity on TLR4: minimal to no activity
Human whole blood
  production of IL-10: dose dependent increase
  production of IL-12: dose dependent increase
TLR5
  activity on TLR5: no detectable activity
TLR7
  pEC50: ~5.70
